According to patent US20030083357A1, “Oxime derivatives for the treatment of dyslipidemia and hypercholesteremia” (priority 2001, published 2003):
“Also recorded” adds a separate entry of the source.

Legend:
[1] = system: Sprague Dawley Rats Maintained on a High Cholesterol Atherogenic Diet; assay: Oral treatment of hypercholesterolemia in Sprague Dawley rats on a high cholesterol atherogenic diet; type: in vivo, rat; settings: 10 mg/kg once daily by oral gavage in sesame oil, five days, p≦0.01
Experimental: Six week-old male Sprague Dawley rats (HSD, Harlan) were housed in a fixed 12-12- hr artificial light-dark cycle, and maintained on a high cholesterol, atherogenic diet ad libitum (#C13002, Research Diets, NJ).
Animals were maintained on this diet throughout the course of the study.
Following six days of maintenance on the high cholesterol diet, the animals were bled from the tail vein (100-200 μL of whole blood) and serum levels of total cholesterol were measured in duplicate (Infinity Cholesterol Kit; Sigma, St. Louis, Mo.). Based on these initial measures, animals were sorted into groups with approximately the same average serum cholesterol levels. Once sorted, the animals were housed three per cage and maintained on the high cholesterol diet ad libitum.
Treatment groups(n=6/group):
1) Lean Sprague Dawley control (sesame oil)
2) High cholesterol fed control (sesame oil)
3) Compound 1 in sesame oil (10 mg/kg; once daily)
Drug is prepared by mixing Compound 1 in sesame oil, and administered to animals in a volume of 3 ml/kg/dose. Drug is administered by oral gavage daily for five consecutive days.
To monitor the effect of Compound 1, animals were bled from the tail vein five days after commencement of oral treatment. Serum cholesterols were measured in duplicate. […]

[2] = system: Obese, Glucose Intolerant Zucker Fatty Rats (fa/fa); assay: Glucose tolerance test in obese, glucose intolerant Zucker Fatty Rats (fa/fa) after oral treatment; type: in vivo, rat; settings: 10 mg/kg once daily by oral gavage in sesame oil, 1 week; 2 g/kg oral glucose after 12 hr fast, serum glucose at 0.5, 1, 2 hours; p<0.05 and p<0.01; FIG. 3
Experimental: Ten week-old male Zucker Fatty Rats (fa/fa; Harlan) were housed in a fixed 12-12- hr artificial light-dark cycle, and maintained on a standard diet provided ad libitum. Animals were allowed two days to acclimate in this experimental environment prior to the initiation of the study.
Prior to initiation of treatment, the animals were bled from the tail vein (100-200 μL of whole blood) and serum levels of triglycerides were measured in duplicate (Infinity kits; Sigma, St. Louis, Mo.). Based on these initial measures, animals were sorted into groups with approximately the same average serum triglyceride levels. Once sorted, the animals were housed one per cage and provided standard rodent diet ad libitum.
Treatment groups (n=5/group):
2) Compound 1 in sesame oil (10 mg/kg once daily)
Drug is prepared by mixing Compound 1 in sesame oil, and administered to animals in a volume of 3 ml/kg/dose. Drug is administered by oral gavage once daily.
To monitor the effect of Compound 1, animals were tested in a glucose tolerance test. One day prior to the tolerance test, the animals were fasted overnight (12 hr fast). Animals were then bled at 0 hours to establish baseline glucose levels. […] The animals were then bled 0.5, 1, and 2 hours later and serum glucose levels were measured in duplicate. […]

For COc1ccc(/C=N/O)cc1-c1cc2c(cc1C)C(C)(C)CCC2(C)C [Compound 1, 3-(3,5,5,8,8-Pentamethyl-5,6,7,8-tetrahydro-2-naphthyl)-4-methoxybenzaldehyde oxime], the total serum cholesterol ([1]; compared to control animals on the same atherogenic diet, FIG. 1) was “significantly reduced”, the LDL cholesterol levels ([1]; compared to controls, FIG. 2) was “reduced” and the “glucose clearance rate (glucose tolerance test)” value [2] was “improvement of glucose tolerance; also recorded: significant increase”. For the same compound, the melting point was 152 °C.
